From patent US10383819B1, “Method to effect biphasic bioavailability of oral euphoric psychogenic cannabinoids” (Callitas Therapeutics, Inc., priority 2018, dated 2019)

Experiments:
[1] = Menthol/1-arginine enhanced oral mucous membrane absorption of THC and euphoric effect
Procedure: FIG. 1 of Human Cannabinoid Pharmacokinetics, by Marilyn A. Huestis, (www.pubmed.gov/17712819) published as Chem Biodivers. 2007 August: 4(8): 1770-1804. […] This is with 8 inhalations over 10 minutes, in 6 patients. […] The method entails maintaining the menthol/1-arginine/THC coated edible THC in the oral cavity for about 10 minutes before chewing the edible.

Respiratory depression = conditions: in vivo
Procedure: The biphasic THC bioavailability, rapid oral absorption of THC, and the delayed, subsequent conversion of THC into 11-OH THC, provide both an immediate euphoric state and an extended euphoric state, 12-18 hours, that could provide a safe drug alternative to opioids. Opioids cause respiratory depression and overdose deaths from respiratory depression relative to opioid dose. This is the rationale of the second reference, and the reason that Massachusetts prioritized recreational cannabis dispensary licenses to areas of high opioid overdose deaths.

[2] = cited from earlier work
[3] = cited from earlier work; remark: listed apart in the source
[4] = menthol/1-arginine enhanced, oral cavity

| Compound | oral mucous membrane absorption of THC relative to the efficacy of smoked/inhaled THC [1, 4] | window in which oral mucous membrane absorption occurs [1, 4] [min] | duration of euphoric effect ([1]; orally absorbed THC, depending upon THC dosage) [h] | respiratory depression (Respiratory depression) | metabolism of inhaled or smoked THC into 11-OH THC ([2]; inhaled or smoked) | rise of plasma THC ([2]; smoking 3.55% THC cannabis, 8 inhalations over 10 minutes, 6 patients, from 0 in 10 minutes) [micrograms/ml] | duration of plasma concentration ([3]; after ingestion of THC) | maximum effect (plasma concentration) ([3]; 6 hours after ingestion) [micrograms/ml] | area under the curve (AUC) of plasma concentration relative to THC ([3]; after ingestion of THC) | plasma concentration at peak effect relative to the peak THC plasma concentration ([3]; after ingestion of THC) | time after ingestion up to which an effect is produced ([3]; after ingestion of THC) | time of maximum effect after ingestion ([3]; after ingestion of THC) [h] |
| --- | --- | --- | --- | --- | --- | --- | --- | --- | --- | --- | --- | --- |
| CCCCCc1cc(O)c2c(c1)OC(C)(C)[C@@H]1CCC(C)=C[C@@H]21 [THC, delta-9 tetrahydrocannabinol] | about 70% | 10 to 15 | 4 to 8 | do not cause respiratory depression | not metabolized into 11-OH THC | 150 | 12 h | – | – | – | – | – |
| Cannabis | – | – | – | do not cause respiratory depression | – | – | – | – | – | – | – | – |
| CCCCCc1cc(O)c2c(c1)OC(C)(C)[C@@H]1CCC(CO)=C[C@@H]21 [11-OH THC, 11-hydroxy tetrahydrocannabinol] | – | – | – | do not cause respiratory depression | – | – | over 24 hours | 110 | triple | double | up to 15 hours | 6 |
